From US10040781B2, “Tank-binding kinase inhibitor compounds” (Gilead Sciences, Inc., priority 2014, dated 2018)

Key:
[1] = target: hJAK2 (Homo sapiens (Human), UniProt O60674); experiment: hJAK2 LANCE TR-FRET enzymatic assay; assay type: biochemical; conditions: read-out: JAK2 IC50
[2] = target: IKKε (Homo sapiens (Human), UniProt Q14164); experiment: IKKε TR-FRET enzymatic assay; assay type: biochemical; conditions: TR-FRET, 2×Km ATP; geometric mean of minimum four determinations; read-out: IKKe IC50
Chain of IKKε (Q14164 whole entry): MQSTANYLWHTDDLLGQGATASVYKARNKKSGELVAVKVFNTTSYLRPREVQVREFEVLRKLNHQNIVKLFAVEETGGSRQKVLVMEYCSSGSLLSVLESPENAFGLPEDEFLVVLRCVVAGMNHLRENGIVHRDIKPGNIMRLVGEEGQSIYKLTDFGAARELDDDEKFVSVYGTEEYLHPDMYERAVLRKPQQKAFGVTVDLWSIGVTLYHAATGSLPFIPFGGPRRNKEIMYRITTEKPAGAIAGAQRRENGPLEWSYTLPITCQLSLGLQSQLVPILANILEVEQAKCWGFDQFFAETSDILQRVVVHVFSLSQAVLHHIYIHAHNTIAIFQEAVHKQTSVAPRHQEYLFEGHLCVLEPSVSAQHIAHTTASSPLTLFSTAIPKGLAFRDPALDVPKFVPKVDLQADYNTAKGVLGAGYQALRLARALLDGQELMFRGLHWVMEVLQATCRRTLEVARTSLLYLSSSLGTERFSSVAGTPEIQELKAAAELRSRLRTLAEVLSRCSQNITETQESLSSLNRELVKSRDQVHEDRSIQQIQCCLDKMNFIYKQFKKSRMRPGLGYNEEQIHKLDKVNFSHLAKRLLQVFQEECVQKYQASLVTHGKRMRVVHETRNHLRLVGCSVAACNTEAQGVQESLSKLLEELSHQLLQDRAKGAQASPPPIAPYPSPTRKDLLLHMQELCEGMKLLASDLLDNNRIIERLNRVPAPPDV

[3] = target: TBK1 (Homo sapiens (Human), UniProt Q9UHD2); experiment: TBK1 TR-FRET enzymatic assay;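 note: phosphorylation of a biotinylated Ser/Thr peptide by purified full-length recombinant TBK1, read by TR-FRET after 240 min at 25 °C, IC50 is the geometric mean of at least four runs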
Chain of TBK1 (Q9UHD2 whole entry): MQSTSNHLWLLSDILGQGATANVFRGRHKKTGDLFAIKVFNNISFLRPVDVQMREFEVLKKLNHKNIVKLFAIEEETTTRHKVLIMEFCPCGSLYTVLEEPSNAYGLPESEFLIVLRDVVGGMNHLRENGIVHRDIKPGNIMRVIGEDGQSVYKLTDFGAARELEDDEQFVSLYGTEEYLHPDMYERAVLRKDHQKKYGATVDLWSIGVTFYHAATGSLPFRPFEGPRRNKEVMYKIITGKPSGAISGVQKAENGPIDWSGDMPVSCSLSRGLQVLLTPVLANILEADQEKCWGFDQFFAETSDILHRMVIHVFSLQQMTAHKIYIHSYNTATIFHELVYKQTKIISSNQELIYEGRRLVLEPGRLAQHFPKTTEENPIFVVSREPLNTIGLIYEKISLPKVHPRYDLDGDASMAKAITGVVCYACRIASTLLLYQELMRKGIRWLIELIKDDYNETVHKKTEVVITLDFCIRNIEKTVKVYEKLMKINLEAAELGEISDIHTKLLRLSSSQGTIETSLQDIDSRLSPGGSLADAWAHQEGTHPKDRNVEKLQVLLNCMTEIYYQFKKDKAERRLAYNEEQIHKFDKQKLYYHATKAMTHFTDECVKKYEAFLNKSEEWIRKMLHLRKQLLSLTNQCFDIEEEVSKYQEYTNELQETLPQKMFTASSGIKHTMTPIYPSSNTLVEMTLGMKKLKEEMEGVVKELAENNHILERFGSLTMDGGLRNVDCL

Chain of hJAK2 (O60674 whole entry): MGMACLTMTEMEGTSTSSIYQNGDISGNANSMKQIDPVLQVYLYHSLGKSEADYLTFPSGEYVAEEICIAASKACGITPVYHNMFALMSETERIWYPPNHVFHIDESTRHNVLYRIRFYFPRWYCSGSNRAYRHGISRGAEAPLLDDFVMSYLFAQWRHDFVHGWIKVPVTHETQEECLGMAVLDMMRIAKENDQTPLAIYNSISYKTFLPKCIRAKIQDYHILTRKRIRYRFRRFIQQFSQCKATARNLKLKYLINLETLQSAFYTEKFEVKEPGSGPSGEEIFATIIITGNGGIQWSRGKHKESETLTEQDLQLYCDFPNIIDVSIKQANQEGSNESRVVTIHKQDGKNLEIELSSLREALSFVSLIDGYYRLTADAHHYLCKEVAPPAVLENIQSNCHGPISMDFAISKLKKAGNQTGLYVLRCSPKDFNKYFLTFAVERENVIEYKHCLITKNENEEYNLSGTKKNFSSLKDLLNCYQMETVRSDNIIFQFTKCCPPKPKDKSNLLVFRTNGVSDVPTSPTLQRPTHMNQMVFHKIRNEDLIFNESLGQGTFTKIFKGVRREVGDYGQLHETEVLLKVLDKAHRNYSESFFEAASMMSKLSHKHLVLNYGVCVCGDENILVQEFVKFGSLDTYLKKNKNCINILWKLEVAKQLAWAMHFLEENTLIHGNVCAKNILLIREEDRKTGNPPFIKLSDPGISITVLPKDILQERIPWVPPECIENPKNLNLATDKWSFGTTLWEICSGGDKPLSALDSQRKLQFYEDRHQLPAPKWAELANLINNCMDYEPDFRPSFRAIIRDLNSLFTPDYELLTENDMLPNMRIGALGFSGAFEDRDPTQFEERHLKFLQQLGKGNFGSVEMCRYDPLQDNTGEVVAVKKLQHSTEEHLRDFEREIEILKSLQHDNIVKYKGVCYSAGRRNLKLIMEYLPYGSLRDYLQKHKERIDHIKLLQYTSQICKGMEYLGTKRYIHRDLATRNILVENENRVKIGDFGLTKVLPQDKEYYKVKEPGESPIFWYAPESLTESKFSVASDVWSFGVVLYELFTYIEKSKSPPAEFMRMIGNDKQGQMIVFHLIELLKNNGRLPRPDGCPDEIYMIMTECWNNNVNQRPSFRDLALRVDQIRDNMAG

Row | Structure (SMILES) | IC50 [1] [nM] | IC50 [2] [nM] | IC50 [3] [nM]
1 | Cc1cc(Nc2ncnc(-c3ccc(O[C@H]4CCN(C(=O)[C@@H]5CCC(=O)N5)C[C@H]4F)c(C#N)c3)n2)ccc1N1CCN(C2COC2)CC1 [Example 536, 2-(((3R,4S)-3-fluoro-1-((S)-5-oxopyrrolidine-2-carbonyl)piperidin-4-yl)oxy)-5-(4-((3-methyl-4-(4-(oxetan-3-yl)piperazin-1-yl)phenyl)amino)-1,3,5-triazin-2-yl)benzonitrile] | 101 | 1 | 2
2 | CC(=O)Nc1ccc(Nc2ncnc(-c3ccc(O[C@H]4CCN(C(=O)[C@@H]5CCC(=O)N5)C[C@H]4F)c(C#N)c3)n2)cn1 [Example 537, N-(5-((4-(3-cyano-4-(((3R,4S)-3-fluoro-1-((S)-5-oxopyrrolidine-2-carbonyl)piperidin-4-yl)oxy)phenyl)-1,3,5-triazin-2-yl)amino)pyridin-2-yl)acetamide] | ≥ 1000 | 18 | 8
3 | CCOc1ccc(Nc2ncnc(-c3ccc(O[C@H]4CCN(C(=O)[C@@H]5CCC(=O)N5)C[C@H]4F)c(C#N)c3)n2)cn1 [Example 538, 5-(4-((6-ethoxypyridin-3-yl)amino)-1,3,5-triazin-2-yl)-2-(((3R,4S)-3-fluoro-1-((S)-5-oxopyrrolidine-2-carbonyl)piperidin-4-yl)oxy)benzonitrile] | ≥ 1000 | 14 | 7
4 | C[C@H](O)C(=O)N1CC[C@H](Oc2ccc(-c3ncnc(Nc4cccc(CN5CCOCC5)c4)n3)cc2C#N)[C@H](F)C1 [Example 539, 2-(((3R,4S)-3-fluoro-1-((S)-2-hydroxypropanoyl)piperidin-4-yl)oxy)-5-(4-((3-(morpholinomethyl)phenyl)amino)-1,3,5-triazin-2-yl)benzonitrile] | 519 | 2 | 3
5 | CC(=O)Nc1ccc(Nc2ncnc(-c3ccc(O[C@H]4CCN(C(=O)[C@H](C)O)C[C@H]4F)c(C#N)c3)n2)cn1 [Example 540, N-(5-((4-(3-cyano-4-(((3R,4S)-3-fluoro-1-((S)-2-hydroxypropanoyl)piperidin-4-yl)oxy)phenyl)-1,3,5-triazin-2-yl)amino)pyridin-2-yl)acetamide] | ≥ 1000 | 21 | 20
6 | CCOc1ccc(Nc2ncnc(-c3ccc(O[C@H]4CCN(C(=O)[C@H](C)O)C[C@H]4F)c(C#N)c3)n2)cn1 [Example 541, 5-(4-((6-ethoxypyridin-3-yl)amino)-1,3,5-triazin-2-yl)-2-(((3R,4S)-3-fluoro-1-((S)-2-hydroxypropanoyl)piperidin-4-yl)oxy)benzonitrile] | ≥ 1000 | 17 | 15
7 | C[C@@H]1CN(c2ccc(Nc3ncnc(-c4ccc(O[C@H]5CCN(C(=O)[C@@H]6CCC(=O)N6)C[C@H]5F)c(C#N)c4)n3)cc2)CCN1C1COC1 [Example 542, 2-(((3R,4S)-3-fluoro-1-((S)-5-oxopyrrolidine-2-carbonyl)piperidin-4-yl)oxy)-5-(4-((4-((R)-3-methyl-4-(oxetan-3-yl)piperazin-1-yl)phenyl)amino)-1,3,5-triazin-2-yl)benzonitrile] | 363 | 4 | 6
8 | COc1cc(Nc2ncnc(-c3ccc(O[C@H]4CCN(C(=O)[C@@H]5CCC(=O)N5)C[C@H]4F)c(C#N)c3)n2)ccc1N1CCN(C2COC2)CC1 [Example 544, 2-(((3R,4S)-3-fluoro-1-((S)-5-oxopyrrolidine-2-carbonyl)piperidin-4-yl)oxy)-5-(4-((3-methoxy-4-(4-(oxetan-3-yl)piperazin-1-yl)phenyl)amino)-1,3,5-triazin-2-yl)benzonitrile] | 44 | 1 | 2
9 | C[C@H](O)C(=O)N1CC[C@H](Oc2ccc(-c3ncnc(Nc4ccc5c(c4)CNC5)n3)cc2C#N)[C@H](F)C1 [Example 545, 2-(((3R,4S)-3-fluoro-1-((S)-2-hydroxypropanoyl)piperidin-4-yl)oxy)-5-(4-(isoindolin-5-ylamino)-1,3,5-triazin-2-yl)benzonitrile] | 659 | 1 | 3
10 | COCC(=O)N1CC[C@H](Oc2ccc(-c3ncnc(Nc4ccc(N5CCN(C6COC6)CC5)cc4)n3)cc2C#N)[C@H](F)C1 [Example 546, 2-(((3R,4S)-3-fluoro-1-(2-methoxyacetyl)piperidin-4-yl)oxy)-5-(4-((4-(4-(oxetan-3-yl)piperazin-1-yl)phenyl)amino)-1,3,5-triazin-2-yl)benzonitrile] | 492 | 2 | 2
11 | CO[C@@H](C)C(=O)N1CC[C@H](Oc2ccc(-c3ncnc(Nc4ccc(N5CCN(C6COC6)CC5)cc4)n3)cc2C#N)[C@H](F)C1 [Example 547, 2-(((3R,4S)-3-fluoro-1-((S)-2-methoxypropanoyl)piperidin-4-yl)oxy)-5-(4-((4-(4-(oxetan-3-yl)piperazin-1-yl)phenyl)amino)-1,3,5-triazin-2-yl)benzonitrile] | ≥ 1000 | 36 | 11
12 | N#Cc1cc(-c2ncnc(Nc3ccc(N4CCN(C5COC5)CC4)cc3)n2)ccc1O[C@H]1CCN(C(=O)[C@@H]2CNC(=O)C2)C[C@H]1F [Example 548, 2-(((3R,4S)-3-fluoro-1-((S)-5-oxopyrrolidine-3-carbonyl)piperidin-4-yl)oxy)-5-(4-((4-(4-(oxetan-3-yl)piperazin-1-yl)phenyl)amino)-1,3,5-triazin-2-yl)benzonitrile] | 353 | 96 | 21
13 | CS(=O)(=O)CC(=O)N1CC[C@H](Oc2ccc(-c3ncnc(Nc4ccc(N5CCN(C6COC6)CC5)cc4)n3)cc2C#N)[C@H](F)C1 [Example 549, 2-(((3R,4S)-3-fluoro-1-(2-(methylsulfonyl)acetyl)piperidin-4-yl)oxy)-5-(4-((4-(4-(oxetan-3-yl)piperazin-1-yl)phenyl)amino)-1,3,5-triazin-2-yl)benzonitrile] | 179 | 11 | 4
14 | N#Cc1cc(-c2ncnc(Nc3ccc(N4CCN(C5COC5)CC4)cc3)n2)ccc1O[C@H]1CCN(C(=O)C2CC(O)C2)C[C@H]1F (stereo partly drawn) [Example 550, 2-(((3R,4S)-3-fluoro-1-(3-hydroxycyclobutanecarbonyl)piperidin-4-yl)oxy)-5-(4-((4-(4-(oxetan-3-yl)piperazin-1-yl)phenyl)amino)-1,3,5-triazin-2-yl)benzonitrile] | 750 | 36 | 11
15 | N#Cc1cc(-c2ncnc(Nc3ccc(N4CCN(C5COC5)CC4)cc3)n2)ccc1O[C@H]1CCN(C(=O)C2CCNC2=O)C[C@H]1F (stereo partly drawn) [Example 551, 2-(((3R,4S)-3-fluoro-1-(2-oxopyrrolidine-3-carbonyl)piperidin-4-yl)oxy)-5-(4-((4-(4-(oxetan-3-yl)piperazin-1-yl)phenyl)amino)-1,3,5-triazin-2-yl)benzonitrile] | 799 | 92 | 16
16 | N#Cc1cc(-c2ncnc(Nc3ccc(N4CCN(C5COC5)CC4)cc3)n2)ccc1O[C@H]1CCN(C(=O)[C@H]2CNC(=O)C2)C[C@H]1F [Example 552, 2-(((3R,4S)-3-fluoro-1-((R)-5-oxopyrrolidine-3-carbonyl)piperidin-4-yl)oxy)-5-(4-((4-(4-(oxetan-3-yl)piperazin-1-yl)phenyl)amino)-1,3,5-triazin-2-yl)benzonitrile] | 562 | 174 | 28
17 | CC(C)(O)CC(=O)N1CC[C@H](Oc2ccc(-c3ncnc(Nc4ccc(N5CCN(C6COC6)CC5)cc4)n3)cc2C#N)[C@H](F)C1 [Example 553, 2-(((3R,4S)-3-fluoro-1-(3-hydroxy-3-methylbutanoyl)piperidin-4-yl)oxy)-5-(4-((4-(4-(oxetan-3-yl)piperazin-1-yl)phenyl)amino)-1,3,5-triazin-2-yl)benzonitrile] | ≥ 1000 | 51 | 38
18 | C[C@H](O)C(=O)N1CC[C@H](Oc2ccc(-c3ncnc(Nc4ccc(-n5ccnc5)cc4)n3)cc2C#N)[C@H](F)C1 [Example 554, 5-(4-((4-(1H-imidazol-1-yl)phenyl)amino)-1,3,5-triazin-2-yl)-2-(((3R,4S)-3-fluoro-1-((S)-2-hydroxypropanoyl)piperidin-4-yl)oxy)benzonitrile] | ≥ 1000 | 4 | 5
19 | N#Cc1cc(-c2ncnc(Nc3ccc(N4CCOCC4)cc3)n2)ccc1O[C@H]1CCN(C(=O)[C@@H](O)CO)C[C@H]1F [Example 555, 2-(((3R,4S)-1-((S)-2,3-dihydroxypropanoyl)-3-fluoropiperidin-4-yl)oxy)-5-(4-((4-morpholinophenyl)amino)-1,3,5-triazin-2-yl)benzonitrile] | 732 | 1 | 4
20 | N#Cc1cc(-c2ncnc(Nc3ccc(N4CCOCC4)cc3F)n2)ccc1O[C@H]1CCN(C(=O)[C@@H](O)CO)C[C@H]1F [Example 556, 2-(((3R,4S)-1-((S)-2,3-dihydroxypropanoyl)-3-fluoropiperidin-4-yl)oxy)-5-(4-((2-fluoro-4-morpholinophenyl)amino)-1,3,5-triazin-2-yl)benzonitrile] | ≥ 1000 | 5 | 3
21 | COCC(O)C(=O)N1CC[C@H](Oc2ccc(-c3ncnc(Nc4ccc(N5CCN(C6COC6)CC5)cc4)n3)cc2C#N)[C@H](F)C1 (stereo partly drawn) [Example 557, 2-(((3R,4S)-3-fluoro-1-(2-hydroxy-3-methoxypropanoyl)piperidin-4-yl)oxy)-5-(4-((4-(4-(oxetan-3-yl)piperazin-1-yl)phenyl)amino)-1,3,5-triazin-2-yl)benzonitrile] | 917 | 4 | 6
22 | N#Cc1cc(-c2ncnc(Nc3ccc(N4CCN(C5COC5)CC4)cc3)n2)ccc1O[C@H]1CCN(C(=O)c2cnc(N)[nH]2)C[C@H]1F [Example 559, 2-(((3R,4S)-1-(2-amino-1H-imidazole-5-carbonyl)-3-fluoropiperidin-4-yl)oxy)-5-(4-((4-(4-(oxetan-3-yl)piperazin-1-yl)phenyl)amino)-1,3,5-triazin-2-yl)benzonitrile] | 83 | 2 | 5
